The source of these data is patent US10751358B2, “Multitargeted nucleoside derivatives” (priority 2017, dated 2020).

The test system of assay [1] is KG-1 human acute myeloid leukemia cells. The assay is described as follows: Cell viability assay of Promega, KG-1 cells. It is filed as cell-based. The following applies: for IC50: Homo sapiens, cell viability; for Ratio (IC50-value of capecitabine/IC50-value of test compound): fold potency versus capecitabine. The text has this:
Using the cell viability assay of Promega, the following IC50-values were obtained against KG-1 human acute myeloid leukemia cells (Table 3). The nucleoside carbamate capecitabine (Xeloda®) is included for comparison).

Assay [2] relates to human colon cancer HCT-116 cells. Put plainly: HCT-116 xenograft test for in vivo oral anticancer activity. Also on record: species or system mice. The note with it: capecitabine 100 mg/kg vs 6a 25 mg/kg, oral. The text has this: This example provides a description of HCT-116 xenograft test for in vivo oral anticancer activity of 6a.
Forty athymic nude mice (NCr nude, female, 5-6 weeks old, 20-25 g, Taconic) were inoculated with 6×10^6 exponentially growing human colon cancer HCT-116 cells, 1:1 ratio with Matrigel in 100 microliter into the right flank. Over the following 10 days, tumors reached a volume of 70 to 130 mm^3. Tumor volume were caliper-measured and calculated as length×width×width/2. Thirty mice were randomly allocated into three groups: (1) vehicle control group, (2) 6a test group, and (3) capecitabine (Cayman Chemical Co.) positive control group, with 10 mice into each group. Dosing solutions of each were prepared and kept refrigerated during the course of the test. Each mouse was dosed daily by oral administration.
After starting the dosing, body weights and tumor size measurements were recorded twice weekly to the end of the test.

Assay [3] deals with T1, ribonucleotide reductase (RR) (Homo sapiens, UniProt P23921).
T1 sequence (P23921 1-792): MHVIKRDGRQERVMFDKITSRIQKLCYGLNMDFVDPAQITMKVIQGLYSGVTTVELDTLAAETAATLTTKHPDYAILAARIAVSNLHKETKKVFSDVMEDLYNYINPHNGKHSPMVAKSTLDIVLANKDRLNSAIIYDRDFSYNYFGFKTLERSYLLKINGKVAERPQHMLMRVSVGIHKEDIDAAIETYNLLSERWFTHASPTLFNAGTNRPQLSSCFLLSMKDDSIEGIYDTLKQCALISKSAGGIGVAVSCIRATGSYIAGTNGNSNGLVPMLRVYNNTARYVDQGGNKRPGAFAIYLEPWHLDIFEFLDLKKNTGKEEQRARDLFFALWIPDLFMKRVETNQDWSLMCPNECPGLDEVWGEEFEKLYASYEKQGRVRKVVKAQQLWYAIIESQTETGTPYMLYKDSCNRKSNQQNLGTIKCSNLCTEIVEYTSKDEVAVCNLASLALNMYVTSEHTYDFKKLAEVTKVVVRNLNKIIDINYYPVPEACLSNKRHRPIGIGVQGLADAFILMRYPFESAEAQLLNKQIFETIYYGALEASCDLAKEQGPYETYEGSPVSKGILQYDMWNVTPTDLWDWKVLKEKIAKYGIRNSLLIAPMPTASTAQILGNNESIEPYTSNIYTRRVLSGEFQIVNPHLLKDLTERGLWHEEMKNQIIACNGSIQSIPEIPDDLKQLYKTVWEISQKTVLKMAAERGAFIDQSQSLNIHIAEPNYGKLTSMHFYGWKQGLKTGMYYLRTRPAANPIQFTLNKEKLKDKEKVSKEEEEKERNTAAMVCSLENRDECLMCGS
T1 sequence (P31350 1-389 partner): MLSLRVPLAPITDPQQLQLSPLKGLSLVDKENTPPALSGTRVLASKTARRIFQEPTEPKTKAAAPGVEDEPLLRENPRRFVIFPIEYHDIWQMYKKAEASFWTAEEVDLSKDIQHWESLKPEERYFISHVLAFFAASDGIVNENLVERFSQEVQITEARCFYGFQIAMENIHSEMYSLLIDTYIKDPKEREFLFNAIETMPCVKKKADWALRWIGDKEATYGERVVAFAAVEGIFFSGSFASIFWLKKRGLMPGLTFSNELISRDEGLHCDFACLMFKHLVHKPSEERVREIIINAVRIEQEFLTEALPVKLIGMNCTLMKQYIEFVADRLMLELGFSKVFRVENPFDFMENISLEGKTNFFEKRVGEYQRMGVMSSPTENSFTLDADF
Put plainly: Enzyme inhibition by intracellular metabolite: ribonucleotide reductase. The class given is biochemical. The following applies: major target; inactivation by covalent bond formation at the active site. The text has this:
(§1) Several intracellular targets of the present disclosure were identified as essential enzymes required for the biosynthesis and function of DNA. These enzymes are susceptible for inhibition by a multitude of cellular metabolites of the present disclosure, contributing to the observed cytotoxicity.
(§2) The inhibition of the enzyme targets, TS, RR, and MTase is irreversible, due to mechanism-based inactivation caused by the inhibitory metabolites. The molecular mechanism of the inactivation involves covalent bond formation with the sulfhydryl groups of the active site cysteine residues essential for enzyme activity (see Examples 6, 7 and 8).
F3dCDP acts as a suicide substrate of the enzyme forming a binary complex between the inhibitor and the enzyme via a covalent bond to the SH-group of the active site cysteine residue: […]

The target of assay [4] is T2, DNA polymerase alpha (Pol α) (Homo sapiens, UniProt P09884).
T2 sequence (P09884 1-1462): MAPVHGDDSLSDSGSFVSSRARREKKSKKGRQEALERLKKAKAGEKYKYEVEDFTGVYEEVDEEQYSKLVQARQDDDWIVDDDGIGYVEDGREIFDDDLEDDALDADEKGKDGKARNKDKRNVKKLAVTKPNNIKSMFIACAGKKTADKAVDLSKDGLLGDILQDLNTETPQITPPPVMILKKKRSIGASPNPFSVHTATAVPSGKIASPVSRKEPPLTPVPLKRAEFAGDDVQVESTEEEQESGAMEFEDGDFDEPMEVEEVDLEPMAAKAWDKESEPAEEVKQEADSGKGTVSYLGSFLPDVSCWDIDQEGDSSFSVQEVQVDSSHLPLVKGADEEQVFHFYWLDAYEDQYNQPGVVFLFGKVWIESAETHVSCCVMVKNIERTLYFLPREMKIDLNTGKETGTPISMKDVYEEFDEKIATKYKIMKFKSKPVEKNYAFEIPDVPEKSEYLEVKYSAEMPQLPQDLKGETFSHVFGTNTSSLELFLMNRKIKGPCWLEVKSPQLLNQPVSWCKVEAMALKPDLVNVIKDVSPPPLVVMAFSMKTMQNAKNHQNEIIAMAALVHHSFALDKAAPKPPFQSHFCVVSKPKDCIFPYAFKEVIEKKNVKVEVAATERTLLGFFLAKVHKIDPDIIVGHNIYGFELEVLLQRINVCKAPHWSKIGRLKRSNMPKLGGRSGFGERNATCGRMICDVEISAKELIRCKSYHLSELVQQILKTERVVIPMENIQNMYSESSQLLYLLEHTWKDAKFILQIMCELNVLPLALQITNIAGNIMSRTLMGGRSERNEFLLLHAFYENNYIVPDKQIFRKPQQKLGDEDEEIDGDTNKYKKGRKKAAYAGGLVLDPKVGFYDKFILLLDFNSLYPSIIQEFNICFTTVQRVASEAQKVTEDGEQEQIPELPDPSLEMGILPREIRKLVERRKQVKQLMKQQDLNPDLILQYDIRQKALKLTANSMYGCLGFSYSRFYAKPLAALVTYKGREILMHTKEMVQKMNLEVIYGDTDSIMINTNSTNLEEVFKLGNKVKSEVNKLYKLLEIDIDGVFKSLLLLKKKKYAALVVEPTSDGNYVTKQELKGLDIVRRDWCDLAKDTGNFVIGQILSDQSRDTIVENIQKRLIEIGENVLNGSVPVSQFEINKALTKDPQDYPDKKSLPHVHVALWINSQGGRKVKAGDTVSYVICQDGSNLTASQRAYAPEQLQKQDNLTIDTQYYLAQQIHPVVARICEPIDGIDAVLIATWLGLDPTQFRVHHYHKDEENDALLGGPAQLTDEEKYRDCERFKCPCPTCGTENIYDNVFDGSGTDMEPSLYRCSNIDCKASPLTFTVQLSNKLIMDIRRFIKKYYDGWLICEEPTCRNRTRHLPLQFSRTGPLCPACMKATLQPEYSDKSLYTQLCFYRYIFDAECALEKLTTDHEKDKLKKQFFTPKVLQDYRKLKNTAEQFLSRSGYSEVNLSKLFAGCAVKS
The assay is described as follows: Enzyme inhibition by intracellular metabolites: DNA polymerase alpha. The class given is biochemical. The note with it: major target; inhibition by DNA chain termination and/or DNA fragmentation.
From the text: as §1

The target in assay [5] is thymidylate synthase (TS) (Homo sapiens, UniProt P04818). The assay is described as follows: Enzyme inhibition by intracellular metabolite: thymidylate synthase. The class given is biochemical. The note with it: major target; inactivation by covalent bond formation at the active site.
Sequence of thymidylate synthase (TS) (P04818 whole entry): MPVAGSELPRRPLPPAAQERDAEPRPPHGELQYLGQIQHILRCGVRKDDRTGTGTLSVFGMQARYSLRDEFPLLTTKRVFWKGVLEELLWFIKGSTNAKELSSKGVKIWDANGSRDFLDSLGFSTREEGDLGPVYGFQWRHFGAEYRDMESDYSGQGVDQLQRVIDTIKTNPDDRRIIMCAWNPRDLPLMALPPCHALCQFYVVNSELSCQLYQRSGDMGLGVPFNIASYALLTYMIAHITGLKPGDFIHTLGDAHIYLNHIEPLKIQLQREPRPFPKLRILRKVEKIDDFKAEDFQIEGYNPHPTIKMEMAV
From the text: as §1, §2
F3dUMP acts as a suicide substrate of the enzyme thymidylate synthase by forming a covalent ternary complex with the enzyme and the cofactor 5,10-methylenetetrahydrofolate. The binding of the inhibitor to the enzyme is by a covalent bond to the SH-group of the active site cysteine residue involved in catalysis: […]

For assay [6], the target named is T3, deoxycytidylate deaminase (DCTD) (Homo sapiens, UniProt P32321).
T3 sequence (P32321 1-178): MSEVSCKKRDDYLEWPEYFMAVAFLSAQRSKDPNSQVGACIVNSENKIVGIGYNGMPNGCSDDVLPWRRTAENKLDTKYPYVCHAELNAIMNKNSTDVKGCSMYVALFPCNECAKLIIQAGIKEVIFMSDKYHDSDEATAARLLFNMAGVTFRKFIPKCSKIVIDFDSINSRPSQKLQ
Put plainly: Enzyme inhibition by intracellular metabolite: deoxycytidylate deaminase. It is filed as biochemical. The note with it: minor target.
From the text: as §1
Intracellular esterase hydrolysis of the 5′-substituent of Formula I (R″=phosphorodiamidate), followed by cyclization leads to a cyclic phosphoester intermediate that collapses into a monophosphoramidate. Further hydrolysis by the phosphoramidase activity of HINT1 results in the formation of F3dCMP, the first intracellular phosphorylated metabolite of compounds of Formula I that serves as a substrate and competitive inhibitor of the enzyme dCMP deaminase, and is a precursor of all the other inhibitory nucleotides described above (see Table 1).

SMILES strings stand for the structures.

One may read the IC50 as the point on the concentration scale where inhibition reaches its midpoint. Read a low IC50 as greater potency. On to `CCCCCOC(=O)Nc1nc(=O)n([C@@H]2O[C@H](C)[C@@H](O)[C@H]2O)cc1F` [Capecitabine, capecitabine, reference compound], for which, in assay [1], the IC50 worked out at 8.92 ± 1.54 µM and the “Ratio (IC50-value of capecitabine/IC50-value of test compound)” value is on record as 1. The “dose of capecitabine required for anticancer activity comparable to 6a, relative to dose of 6a” value in assay [2] is listed as “about 4 times”. Consider `Nc1nc(=O)n([C@@H]2O[C@H](COP(=O)(O)OP(=O)(O)O)[C@@H](O)C2(F)F)cc1F` [Compound F3dCDP, 2′,2′,5-trifluorodeoxycytidine diphosphate], for which the “Reversibility of inhibition of RR” value in assay [3] was “Irreversible*”.

For the compound `Nc1nc(=O)n([C@@H]2O[C@H](COP(=O)(O)OP(=O)(O)OP(=O)(O)O)[C@@H](O)C2(F)F)cc1F` [Compound F3dCTP, 2′,2′,5-trifluorodeoxycytidine triphosphate], in assay [4], the “Reversibility of inhibition of Pol α” value is on record as “Irreversible**”. `O=c1[nH]c(=O)n([C@@H]2O[C@H](COP(=O)(O)O)[C@@H](O)C2(F)F)cc1F` [Compound F3dUMP, 2′,2′,5-trifluorodeoxyuridine monophosphate]: in assay [5], the “Reversibility of inhibition of TS” value is “Irreversible*”. For the compound `O=c1[nH]c(=O)n([C@H]2C[C@H](O)[C@@H](CO)O2)cc1C(F)(F)F` [Compound F3dUrd], the “substrate activity for thymidine phosphorylase (cleavage to produce FU)” value in the assay with thymidine phosphorylase is recorded as “did not serve as a substrate for thymidine phosphorylase”.

Take `Nc1nc(=O)n([C@@H]2O[C@H](COP(=O)(O)O)[C@@H](O)C2(F)F)cc1F` [Compound F3dCMP, 2′,2′,5-trifluorodeoxycytidine monophosphate]: the “Reversibility of inhibition of DCTD” value in assay [6] is given as “reversible”. For the compound `O=c1[nH]c(=O)n([C@@H]2O[C@H](COP(=O)(O)OP(=O)(O)OP(=O)(O)O)[C@@H](O)C2(F)F)cc1F` [Compound F3dUTP, 2′,2′,5-trifluorodeoxyuridine triphosphate], in assay [4], the “Reversibility of inhibition of Pol α” value was “Irreversible**”. `Nc1nc(=O)n([C@@H]2O[C@H](CO)[C@@H](O)C2(F)F)cc1F` [Compound 5, 2′-Deoxy-2′,2′,5-trifluorocytidine]: in assay [1], half-maximal inhibition (IC50) required 0.0341 ± 0.00527 µM and the “Ratio (IC50-value of capecitabine/IC50-value of test compound)” value is reported as 253.

As for `O=c1[nH]c(=O)n([C@H]2C[C@H](O)[C@@H](CO)O2)cc1F` [Floxuridine, reference compound], the “substrate activity for thymidine phosphorylase (cleavage to produce FU)” value in the assay on thymidine phosphorylase is listed as “rapidly cleaved by thymidine phosphorylase to produce FU”.
